Experiments:
MAGL [1] = target: T1, MAGL (Mus musculus (Mouse), UniProt O35678); experiment: In vitro competitive activity-based protein profiling (mouse brain membrane fraction or cell lysates), MAGL band; type: biochemical; conditions: mouse proteome; for inhibition at 1 µM: read-out: MAGL % Inh 1 μM (mouse); for IC50: competitive ABPP
Experimental: In Vitro Competitive Activity-Based Protein Profiling.
Proteomes (mouse brain membrane fraction or cell lysates) (50 μL, 1.0 mg/mL total protein concentration) were preincubated with varying concentrations of inhibitors at 37° C. After 30 min, FP—Rh (1.0 μL, 50 μM in DMSO) was added and the mixture was incubated for another 30 min at 37° C. Reactions were quenched with SDS loading buffer (50 μL-4×) and run on SDS-PAGE.

ABHD6 [2] = target: T2, ABHD6 (Mus musculus (Mouse), UniProt Q8R2Y0); experiment: In vitro competitive activity-based protein profiling (mouse brain membrane fraction or cell lysates), ABHD6 band; type: biochemical; conditions: mouse proteome; for inhibition at 1 µM: read-out: ABHD6 % Inh 1 μM (mouse); for IC50: competitive ABPP
Procedure, shortened: (§1)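 Competitive ABPP: proteome 1.0 mg/mL protein + inhibitor, 30 min, 37° C; FP-Rh probe (stock 50 μM in DMSO) added, 30 min, 37° C; SDS quench, SDS-PAGE, fluorescent band intensity read.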

FAAH [3] = target: T3, FAAH (Mus musculus (Mouse), UniProt O08914); experiment: In vitro competitive activity-based protein profiling (mouse brain membrane fraction or cell lysates), FAAH band; type: biochemical; conditions: mouse proteome; for inhibition at 1 µM: read-out: FAAH % Inh 1 μM (mouse); for IC50: competitive ABPP
Procedure, shortened: as §1

MAGL [4] = target: T1, MAGL; experiment: Mouse brain proteomes from inhibitor treated mice (oral gavage, sacrificed 4 h after administration, ABPP analysis); type: in vivo, mouse (C57Bl/6J); conditions: 5 mg/kg oral gavage
Procedure, shortened: (§2)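 Oral dosing of C57Bl/6J wild-type mice at 5 mg/kg, brain collection 4 h afterwards, then ABPP of brain proteomes to give % target inhibition.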

FAAH [5] = target: T3, FAAH; experiment: Mouse brain proteomes from inhibitor treated mice (oral gavage, sacrificed 4 h after administration, ABPP analysis), FAAH; type: in vivo, mouse (C57Bl/6J); conditions: 5 mg/kg oral gavage
Procedure, shortened: as §2

ABHD6 [6] = target: T2, ABHD6; experiment: Mouse brain proteomes from inhibitor treated mice (oral gavage, sacrificed 4 h after administration, ABPP analysis), ABHD6; type: in vivo, mouse (C57Bl/6J); conditions: 5 mg/kg oral gavage
Procedure, shortened: as §2

T2 sequence (Q8R2Y0 whole entry): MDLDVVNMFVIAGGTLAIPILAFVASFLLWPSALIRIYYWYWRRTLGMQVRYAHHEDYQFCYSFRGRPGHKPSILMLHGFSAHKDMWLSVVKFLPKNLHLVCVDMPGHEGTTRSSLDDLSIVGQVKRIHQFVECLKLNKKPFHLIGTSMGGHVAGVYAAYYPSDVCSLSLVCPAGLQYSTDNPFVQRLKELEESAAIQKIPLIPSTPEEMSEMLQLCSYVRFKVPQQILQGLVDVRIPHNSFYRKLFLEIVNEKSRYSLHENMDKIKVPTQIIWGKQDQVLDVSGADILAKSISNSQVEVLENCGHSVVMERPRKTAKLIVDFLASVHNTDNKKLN
T1 sequence (O35678 whole entry): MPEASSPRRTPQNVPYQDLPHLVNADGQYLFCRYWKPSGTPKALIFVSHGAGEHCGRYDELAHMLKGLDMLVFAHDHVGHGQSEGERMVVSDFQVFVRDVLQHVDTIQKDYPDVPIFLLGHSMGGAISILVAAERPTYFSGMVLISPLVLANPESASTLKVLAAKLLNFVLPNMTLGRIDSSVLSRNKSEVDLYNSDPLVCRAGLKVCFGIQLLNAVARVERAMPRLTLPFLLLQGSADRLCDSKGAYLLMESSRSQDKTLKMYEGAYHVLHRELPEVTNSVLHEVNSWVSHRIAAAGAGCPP
T3 sequence (O08914 whole entry): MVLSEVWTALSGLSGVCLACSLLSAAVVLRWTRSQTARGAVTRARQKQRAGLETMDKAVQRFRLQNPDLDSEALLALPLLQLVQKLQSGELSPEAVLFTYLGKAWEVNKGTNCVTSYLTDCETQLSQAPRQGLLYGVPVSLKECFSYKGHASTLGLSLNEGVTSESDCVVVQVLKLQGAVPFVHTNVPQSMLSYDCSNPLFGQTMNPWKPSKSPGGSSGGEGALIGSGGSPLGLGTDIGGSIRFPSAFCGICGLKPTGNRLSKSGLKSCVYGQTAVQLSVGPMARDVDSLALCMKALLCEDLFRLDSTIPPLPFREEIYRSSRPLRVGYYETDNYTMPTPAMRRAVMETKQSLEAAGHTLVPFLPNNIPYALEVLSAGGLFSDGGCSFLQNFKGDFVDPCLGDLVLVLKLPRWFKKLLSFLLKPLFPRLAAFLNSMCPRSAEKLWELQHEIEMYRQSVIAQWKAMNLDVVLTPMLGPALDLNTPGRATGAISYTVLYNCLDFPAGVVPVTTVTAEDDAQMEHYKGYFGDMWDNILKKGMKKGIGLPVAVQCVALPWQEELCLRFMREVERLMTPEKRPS

Row | inhibition at 1 µM (MAGL [1]) [%] | IC50 (MAGL [1]) [nM] | inhibition at 1 µM (ABHD6 [2]) [%] | IC50 (ABHD6 [2]) [nM] | inhibition at 1 µM (FAAH [3]) [%] | IC50 (FAAH [3]) [nM] | MAGL % Inh 5 mg/kg (mouse) (MAGL [4]) | FAAH % Inh 5 mg/kg (mouse) (FAAH [5]) | ABHD6 % Inh 5 mg/kg (mouse) (ABHD6 [6]) | SMILES
1 | > 75 | < 100 | < 25 | > 1000 | < 25 | > 1000 | ### (### is ≥75%) | # (# is <25%) | # (# is <25%) | O=C(OC(C(F)(F)F)C(F)(F)F)N1CCC2(CCCN2Cc2ccc(Cl)cc2N2CC3CCC(C2)O3)CC1 [Example 75, 1,1,1,3,3,3-Hexafluoropropan-2-yl 1-(2-(8-oxa-3-azabicyclo[3.2.1]octan-3-yl)-4-chlorobenzyl)-1,8-diazaspiro[4.5]decane-8-carboxylate]
2 | > 75 | < 100 | < 25 | > 1000 | < 25 | > 1000 | ### (### is ≥75%) | # (# is <25%) | # (# is <25%) | O=C(OC(C(F)(F)F)C(F)(F)F)N1CCC2(CCCN2Cc2cc(N3CCC3)cc(C(F)(F)F)c2)CC1 [Example 47, 1,1,1,3,3,3-Hexafluoropropan-2-yl 1-(3-(azetidin-1-yl)-5-(trifluoromethyl)benzyl)-1,8-diazaspiro[4.5]decane-8-carboxylate]
3 | > 75 | < 100 | < 25 | > 1000 | < 25 | > 1000 | ### (### is ≥75%) | # (# is <25%) | # (# is <25%) | CC(=O)N1CCN(c2cc(Cl)ccc2CN2CCCC23CCN(C(=O)OC(C(F)(F)F)C(F)(F)F)CC3)CC1 [Example 99, 1,1,1,3,3,3-Hexafluoropropan-2-yl 1-(2-(4-acetylpiperazin-1-yl)-4-chlorobenzyl)-1,8-diazaspiro[4.5]decane-8-carboxylate]
4 | > 75 | < 100 | 25 to 75 | > 1000 | < 25 | > 1000 | ### (### is ≥75%) | # (# is <25%) | # (# is <25%) | O=C(OC(C(F)(F)F)C(F)(F)F)N1CCC2(CCCN2Cc2ccc(N3CCOCC3)c(C(F)(F)F)c2)CC1 [Example 129, 1,1,1,3,3,3-Hexafluoropropan-2-yl 1-(4-morpholino-3-(trifluoromethyl)benzyl)-1,8-diazaspiro[4.5]decane-8-carboxylate]
5 | > 75 | < 100 | < 25 | > 1000 | < 25 | > 1000 | ### (### is ≥75%) | # (# is <25%) | # (# is <25%) | O=C(OC(C(F)(F)F)C(F)(F)F)N1CCC2(CCCN2Cc2cc(Cl)cc(N3CCCC3)c2)CC1 [Example 34, 1,1,1,3,3,3-Hexafluoropropan-2-yl 1-(3-chloro-5-(pyrrolidin-1-yl)benzyl)-1,8-diazaspiro[4.5]decane-8-carboxylate]

The remaining lines, values behind:

Row | SMILES | inhibition at 1 µM (MAGL [1]) [%] | IC50 (MAGL [1]) [nM] | inhibition at 1 µM (ABHD6 [2]) [%] | IC50 (ABHD6 [2]) [nM] | inhibition at 1 µM (FAAH [3]) [%] | IC50 (FAAH [3]) [nM] | MAGL % Inh 5 mg/kg (mouse) (MAGL [4]) | FAAH % Inh 5 mg/kg (mouse) (FAAH [5]) | ABHD6 % Inh 5 mg/kg (mouse) (ABHD6 [6])
6 | O=C(OC(C(F)(F)F)C(F)(F)F)N1CCC2(CCCN2Cc2ccc(C(F)(F)F)cc2N2CC3CCC(C2)O3)CC1 [Example 73, 1,1,1,3,3,3-Hexafluoropropan-2-yl 1-(2-(8-oxa-3-azabicyclo[3.2.1]octan-3-yl)-4-(trifluoromethyl)benzyl)-1,8-diazaspiro[4.5]decane-8-carboxylate] | > 75 | < 100 | < 25 | > 1000 | < 25 | > 1000 | ## (## is equal to or greater than 25% but less than 75%) | # (# is <25%) | # (# is <25%)
7 | CN1CCN(c2c(Cl)cccc2CN2CC3(CCN(C(=O)OC(C(F)(F)F)C(F)(F)F)CC3)CC2(C)C)CC1 [Example 189, 1,1,1,3,3,3-Hexafluoropropan-2-yl 2-(3-chloro-2-(4-methylpiperazin-1-yl)benzyl)-3,3-dimethyl-2,8-diazaspiro[4.5]decane-8-carboxylate] | > 75 | < 100 | 25 to 75 | 100 to 1000 | < 25 | > 1000 | ## (## is equal to or greater than 25% but less than 75%) | # (# is <25%) | # (# is <25%)
8 | CC(=O)NC1CCN(c2cc(C(F)(F)F)ccc2CN2CCCC23CCN(C(=O)OC(C(F)(F)F)C(F)(F)F)CC3)CC1 [Example 93, 1,1,1,3,3,3-Hexafluoropropan-2-yl 1-(2-(4-acetamidopiperidin-1-yl)-4-(trifluoromethyl)benzyl)-1,8-diazaspiro[4.5]decane-8-carboxylate] | > 75 | < 100 | < 25 | > 1000 | < 25 | > 1000 | ### (### is ≥75%) | # (# is <25%) | # (# is <25%)
9 | O=C(OC(C(F)(F)F)C(F)(F)F)N1CCC2(CCCN2Cc2cc(N3CC4COCC4C3)cc(C(F)(F)F)c2)CC1 (stereo not drawn) [Example 46, 1,1,1,3,3,3-Hexafluoropropan-2-yl 1-(3-(tetrahydro-1H-furo[3,4-c]pyrrol-5(3H)-yl)-5-(trifluoromethyl)benzyl)-1,8-diazaspiro[4.5]decane-8-carboxylate] |  | < 100 |  | > 1000 |  | > 1000 | ### (### is ≥75%) | # (# is <25%) | # (# is <25%)
10 | O=C(OC(C(F)(F)F)C(F)(F)F)N1CCC2(CCCN2Cc2ccc(C(F)(F)F)cc2N2CCCC2)CC1 [Example 66, 1,1,1,3,3,3-Hexafluoropropan-2-yl 1-(2-(pyrrolidin-1-yl)-4-(trifluoromethyl)benzyl)-1,8-diazaspiro[4.5]decane-8-carboxylate] | > 75 | < 100 | < 25 | > 1000 | < 25 | > 1000 | ## (## is equal to or greater than 25% but less than 75%) | # (# is <25%) | # (# is <25%)
11 | CN1CCC(Oc2cc(CN3CCCC34CCN(C(=O)OC(C(F)(F)F)C(F)(F)F)CC4)cc(C(F)(F)F)c2)CC1 [Example 166, 1,1,1,3,3,3-Hexafluoropropan-2-yl 1-(3-(1-methylpiperidin-4-yloxy)-5-(trifluoromethyl)benzyl)-1,8-diazaspiro[4.5]decane-8-carboxylate] | > 75 | < 100 | < 25 | > 1000 | < 25 | > 1000 | # (# is <25%) | # (# is <25%) | # (# is <25%)
12 | O=C(OC(C(F)(F)F)C(F)(F)F)N1CCC2(CCCN2Cc2ccc(F)c(OCCF)c2)CC1 [Example 29, 1,1,1,3,3,3-Hexafluoropropan-2-yl 1-(4-fluoro-3-(2-fluoroethoxy)benzyl)-1,8-diazaspiro[4.5]decane-8-carboxylate] | > 75 | < 100 | ≥ 75 | > 1000 | < 25 | > 1000 | ### (### is ≥75%) | ## (## is equal to or greater than 25% but less than 75%) | ### (### is ≥75%)
13 | CS(=O)(=O)N1CCN(c2cc(Cl)ccc2CN2CCCC23CCN(C(=O)OC(C(F)(F)F)C(F)(F)F)CC3)CC1 [Example 100, 1,1,1,3,3,3-Hexafluoropropan-2-yl 1-(4-chloro-2-(4-(methylsulfonyl)piperazin-1-yl)benzyl)-1,8-diazaspiro[4.5]decane-8-carboxylate] | > 75 | < 100 | < 25 | > 1000 | < 25 | > 1000 | ### (### is ≥75%) | # (# is <25%) | # (# is <25%)
14 | O=C(OC(C(F)(F)F)C(F)(F)F)N1CCC2(CCCN2Cc2ccc(Cl)cc2N2CCC(F)CC2)CC1 [Example 102, 1,1,1,3,3,3-Hexafluoropropan-2-yl 1-(4-chloro-2-(4-fluoropiperidin-1-yl)benzyl)-1,8-diazaspiro[4.5]decane-8-carboxylate] | > 75 | < 100 | < 25 | > 1000 | < 25 | > 1000 | ### (### is ≥75%) | # (# is <25%) | # (# is <25%)
